The results in this text go back to US20170355686A1, “NOVEL OXAZOLE COMPOUNDS AS BETA CATENIN MODULATORS AND USES THEREOF” (NEW YORK UNIVERSITY, priority 2014, published 2017).

In the assay the test system is Wnt reporter. Briefly: Wnt reporter (Super 8X Topflash, TCF promoter) luciferase IC50 assay in STF and STF3A cells. It counts as cell-based. Conditions: for inhibition of the Wnt reporter: HEK293 cells stimulated with either exogenous (STF) or endogenous Wnt 3a (STF3a); for IC50: range over STF (exogenous Wnt3a, paracrine) and STF3A (endogenous Wnt3a, autocrine) HEK293 cells, 24 hours incubation. Here is the method:
STF and STF3A cells were cultured in DMEM, 4500 mg/L glucose supplemented with 10% fetal bovine serum, 2 mM L-glutamine, 110 mg/L sodium pyruvate and Penicillin/Streptomycin.
STF cells are HEK293 cells stably expressing the Super 8X Topflash M50 (http://www.addgene.org/12456/; the entire content of which is incorporated herein by reference) reporter. STF3A cells are HEK293 cells stably expressing both Super 8X Topflash reporter and pPGK-mWnt3A. The above cell lines are a gift from David Virshup.
L-Wnt3A cells were cultured in DMEM, 4500 mg/L glucose supplemented with 10% fetal bovine serum and 2 mM L-glutamine and 110 mg/L sodium pyruvate and Penicillin/Streptomycin. Wnt3A-Conditioned media was prepared with L-Wnt3A cells cultured according to recommended protocols from ATCC (http://www.atcc.org/products/all/CRL-2647.aspx#culturemethod).
Unless otherwise indicated, all experiments described herein that call for supplemental Wnt3a utilize Wnt3a conditioned media prepared by harvesting media from L-cells stably transfected with a Wnt3a coding construct (available from ATCC #CRL-2647). The cells are cultured in DMEM containing 10% fetal bovine serum (FBS). The medium, harvested from adherent cells cultured to about 80% confluency over 4 days, is purified through a 0.2 μm filter and stored at 4° C. over several months without an appreciable loss in activity [Willert et al. Nature 423, 448-52 (2003)].
STF and STF3A cells were seeded in 96 well plates, with 20,000 cells in 100 μL media per well. Following 16 hours incubation, 50 μL of media per well containing STF cells were replaced with the same volume of Wnt3A-Conditioned media.
iCRT3 and analogs were tested in triplicates at a concentration range of 50 μM-0.00013 μM, at 5-fold dilutions. Cells were incubated with the compounds for 24 hours.
Cell viability was measured after incubation with 100 μL of PrestoBlue® Cell Viability Reagent in DMEM (1:9) for 30 minutes. Following fluorescence measurements, media containing PrestoBlue reagents was aspirated. Cell were lysed in 60 μL of Dual-Glo® Reagent from the Dual-Glo® Luciferase Assay System. Luciferase activity was quantified with a luminometer after 10 minutes of incubation at room temperature.
Background subtracted luminescence readings (RLU) from the Dual-Glo® Luciferase assay were normalized against background subtracted fluorescence values (RFU) from the PrestoBlue® Cell Viability assay.
The RLU/RFU values were plotted using GraphPad Prism (www.graphpad.com). The curve was fitted with a three parameter curve fitting equation: Y=Min value+(Max value−Min value)/[1+10̂(X−lg IC50)].
Cell lines tested include STF, which are HEK293 cells expressing firefly luciferase under the control of the TCF promoter, and STF3A, which are the same as STF but also expresses Wnt3a constitutively. The two cell lines facilitate the testing of the compounds in the context of Wnt signaling activated in a paracrine (STF) versus autocrine (STF3A) fashion.
Day 0—Seed cells in 96-well plates (20,000 cells per well)
Day 1—Add compounds. For STF cells, half of the medium was also changed to Wnt3a conditioned medium.
Day 2—Measure PrestoBlue (cell viability) and Dual-Glo luciferase (TCF promoter activity).
The concentration range for iCRT3 was 10 μM-0.0000001 μM. All other compounds were tested at a concentration range of 10 μM-0.000026 μM.

Structures are written as SMILES.

Consider `CCc1ccc(-c2nc(CSCC(=O)NCCc3cccnc3)c(C)o2)cc1` [II-7], for which the “inhibition of the Wnt reporter” value is on record as “dose dependent inhibition” and the half-inhibitory concentration (IC50) (in general, the point on the concentration scale where inhibition reaches its midpoint) was 2 to 8 µM.
The corresponding values for `CCc1ccc(-c2nc(CSCC(=O)NCCc3ccc(F)cc3)c(C)o2)cc1` [II-1, 2-[2-(4-ethyl-phenyl)-5-methyl-oxazol-4-ylmethylsulfanyl]-N-[2-(4-fluoro-phenyl)-ethyl]-acetamide] are “dose dependent inhibition” and 2 to 8 µM.
For the compound `CCc1ccc(-c2nc(CSCC(=O)NCCc3ccccc3)c(C)o2)cc1` [iCRT3, reference compound], the “inhibition of the Wnt reporter” value is listed as “dose dependent inhibition” and the half-inhibitory concentration (IC50) fell in the range of 14 to 30 µM.
